Test [1] concerns LNCap human prostate cancer cell lines. Kind of test: MTT survival rate of LNCap cells stimulated by testosterone. The format is cell-based. Here is the method:
In one embodiment, LNCap human prostate cancer cell lines (BCRC 60088) purchased from Bioresource Collection and Research Center (BCRC) are used. 2×10^4 LNCap cells/well are placed in the 96-well plate and cultured for 24 hr. LNCap cells treated with testosterone and various concentrations (0.5 mg/mL and 2.0 mg/mL) of the banana flower extract, and co-cultured for 3 days. LNCap cells are treated with the banana flower extract without testosterone as negative control, and LNCap cells are treated with testosterone without the banana flower extract as vehicle control. The survival rate of LNCap cells is evaluated using the MTT assay, LNCap cells are treated with 1 mg/mL MTT (3-[4,5-dimethyl thiazol-2-yl]-2,5diphenyl tetrazolium bromide) for 2 hr, and dimethyl sulfoxide (DMSO) is added to dissolve blue formazan crystals. An absorbance is measured using a reader at the wavelength of 570 nm.

In test [2] the test system is dihydrotestosterone synthesis in LNCap cells. Kind of test: Dihydrotestosterone level (ELISA) in LNCap cells stimulated by testosterone. The format is cell-based, human. The note with it: co-treatment of testosterone and 0.2 mg/mL finasteride; testosterone alone = 100%. Here is the method: 1×10^5 LNCap cells/well are cultured with RPMI 1640 containing 10% FBS and 1% sodium pyruvate in 9-cm culture plate for 36 hr. […] And all LNCap cells are stimulated by 10 μg/mL testosterone.
Cell lysis is processed prior to analysis of dihydrotestosterone level: LNCap cells are dispersed with typsin and centrifuged to collect the suspension cells, the suspension cells are washed with cold PBS, and the suspension cells are resuspended in PBS(1×) and sonicated 4 times; or LNCap cells are frozen at −20° C. or lower, and stirred frequently until thawed for 3 times to destroy cells. The destroyed cells are centrifuged at 150× g at 2-8° C. for 10 min to remove the cell debris. Finally, dihydrotestosterone ELISA Kit (Uscn Life science Inc.) is used to detect dihydrotestosterone level.
LNCap cells are treated with the banana flower extract of the present invention and testosterone as above-mentioned method, LNCap cells treated with the banana flower extract without testosterone as negative control, and LNCap cells treated with testosterone without the banana flower extract as vehicle control, are detected dihydrotestosterone level. […] As co-treating with testosterone and the banana flower extract (2 mg/mL), the dihydrotestosterone synthesis rate of LNcap cells is decreased about 30%. […]
A general note: ELISA stands for enzyme-linked immunosorbent assay.

In the case of `C[C@]12CC[C@H]3[C@@H](CCC4=CC(=O)CC[C@@]43C)[C@@H]1CC[C@@H]2O` [testosterone], the “survival rate of LNcap cells” value in test [1] (testosterone alone, without testosterone = 100%) is recorded as “about 110%”.

In the case of `CC(C)(C)NC(=O)[C@H]1CC[C@H]2[C@@H]3CC[C@H]4NC(=O)C=C[C@]4(C)[C@H]3CC[C@]12C` [finasteride], in test [1] (co-treatment of testosterone and 0.2 mg/mL finasteride), the “LNcap cell proliferation stimulated by testosterone” value is listed as “slightly inhibit”. Further, the “reduction of dihydrotestosterone synthesis rate” value in test [2] stood at 10%.

The values are drawn from patent US9968646B2, “Method for treatment of prostatic hyperplasia and/or ameliorating urinary disturbance with banana flower extract” (TCI Co., Ltd., priority 2014, dated 2018).
